Series [1] concerns normal ovary epithelial cell IOSE80. Description: CCK8 cell viability assay. The class given is cell-based. The note with it: 24 h. The method, then:
(§1) A2780, SKOV3, ID8, IOSE80, and HUVEC cells (2.0 × 10^3 per well) were seeded into 96-well plates in 100 μL culture medium. After 24 h of incubation, the medium was replaced with a medium containing various peptide concentrations. The cell viability after the peptide treatment was tested by CCK8 assay. Briefly, after 24 h treatment, 10 μL CCK8 was added to each well and incubated for 2 h. After incubation, the optical density (OD) at 450 nm was detected using a microplate reader. Cell viability was calculated using the formula: (%) = [D-D0]/[ D¯ -D0] × 100%. D was the OD value of the experimental group, D0 represented the OD value of the blank control group, while [ D¯ was the mean OD value of the control group.
A general note: Tetrazolium dyes change colour on reduction, which living cells bring about.

The subject of series [2] is human umbilical vein endothelial cells HUVEC. Description: CCK8 cell viability assay. Type of series: cell-based. The settings on record: 24 h. As to the method:
as §1

In a further series the test system is ID8 cells. Type of series: cell-based, mouse. The settings on record: 24 h. As to the method:
as §1

In a further series the test system is OVCA429 cells. The class given is cell-based, human. The settings on record: 24 h.
The test system of a further series is ID8-Luc cells. Description: Ovarian cancer peritoneal spread mouse model. Type of series: in vivo. The note with it: C57BL/6 mice, 5 mpk intraperitoneally every other day, 10 administrations; ascites volume after sacrifice. As to the method: To create luciferase heredity stable ID8 cells, the PL-luciferase plasmid (Addgene, 21,471) was packaged by co-transfecting it with DVPR and VSVG packing plasmids using PEI in HEK293T. The virus-containing solution was then collected and cell debris was removed through a 0.45 μm filter. After infection, the cells were selected by treating them with 1 μg/mL puromycin for 3 days to eliminate the uninfected ID8 cells. The expression of luciferase in the cells was then confirmed using the Bio-Lumi™ Firefly Luciferase Reporter Gene Assay Kit (RG042S, Beyotime, China).
The animal experiment followed the Declaration of Helsinki guidelines and was approved by the Guangdong Medical University Animal Ethical Committee (GDY2102330). 5-week-old female C57BL/6 mice were obtained from Yancheng biological company and housed in an SPF laboratory at 26 ℃ with free access to water and food. Mice were intraperitoneally injected with 5 × 10^6 ID8-Luc-puro cells resuspended in 200 μL PBS. […] Body weight was measured every 5 days. After treatment, mice were injected with pentobarbitone and D-luciferin, and the luminescence signals were observed within 15 min using the live imaging system (In-vivo Xtreme, Bruker, USA). The fluorescence intensity was normalized and analyzed by Bruker MI SE software.

A further series relates to SKOV3 cells. The class given is cell-based, human. The settings on record: 24 h. The method, then: as §1
A further series relates to A2780 cells. Type of series: cell-based, human. The settings on record: 24 h. The method, then:
as §1

Where no end group is shown, it is not given here.

The term IC50 denotes the point on the concentration scale where inhibition reaches its midpoint. The low end stands for inhibition by little substance, the high end for a need for much substance. As for FFKRLRNKFRLMRQAWKDYR [CS-piscidin], the half-inhibitory concentration (IC50) in series [1] turned out to be 35.2 ± 3.14 µM; in series [2], 14.3 ± 3.03 µM; in the series on ID8 cells, 19.8 ± 0.836 µM; in the series on OVCA429 cells, 27.4 ± 1.16 µM; in the series on SKOV3 cells it was 37.4 ± 5.09 µM; with A2780 cells it was 9.44 ± 0.666 µM. For the same sequence, the “ascites / cytotoxicity to normal cells in vivo” value in the series with ID8-Luc cells was “still produced ascites”.

The values above are taken from PMC10066050, “Antimicrobial peptides CS-piscidin-induced cell death involves activation of RIPK1/PARP, and modification with myristic acid enhances its stability and tumor-targeting capability” (Discover. Oncology, 2023).
